Experimental data taken from publication PMC6009871, “Anion inhibition studies of a beta carbonic anhydrase from the malaria mosquito Anopheles gambiae” (Journal of Enzyme Inhibition and Medicinal Chemistry, 2018).
Read-outs that look alike come from different tables or passages of the source.

Target: T1, AgaCA (Anopheles gambiae, UniProt Q5TU56)
T1 construct: gene 1272966; full-length beta-CA, C-terminal thrombin site and His6 tag (tag removed by thrombin), baculovirus/Sf9
T1 sequence (Q5TU56 1-255): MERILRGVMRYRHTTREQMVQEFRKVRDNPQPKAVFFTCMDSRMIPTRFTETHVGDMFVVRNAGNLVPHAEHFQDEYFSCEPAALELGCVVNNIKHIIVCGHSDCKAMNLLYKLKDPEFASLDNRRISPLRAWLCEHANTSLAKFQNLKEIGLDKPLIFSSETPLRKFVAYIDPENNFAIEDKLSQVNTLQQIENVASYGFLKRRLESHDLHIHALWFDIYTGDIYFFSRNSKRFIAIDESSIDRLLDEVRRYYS
Assay: biochemical

SMILES: S [HS^−]
- Ki (read-out: AgaCA^c): 25.1 mM

SMILES: CCN(CC)C(=S)S [Et2NCS2^−]
- Ki (read-out: AgaCA^c): 0.65 mM

SMILES: NS(N)(=O)=O [H2NSO2NH2]
- Ki (read-out: AgaCA^c): 0.054 mM

SMILES: N#C[SeH] [SeCN^−]
- Ki (read-out: AgaCA^c): 8.68 mM

SMILES: N#CS [SCN^−]
- Ki: 6.41 mM

SMILES: OB(O)c1ccccc1 [Ph-B(OH)2]
- Ki (read-out: AgaCA^c): 0.047 mM

SMILES: [O]=[V]([OH])([OH])[O][V](=[O])([OH])[OH] [V2O7^4−]
- Ki (read-out: AgaCA^c): 7.98 mM

SMILES: O=S(=O)(O)O [SO4^2−]
- Ki: 9.03 mM

SMILES: Cl [Cl^−]
- Ki (read-out: AgaCA^c): 8.74 mM

SMILES: F [F^−]
- Ki (read-out: AgaCA^c): 9.42 mM

SMILES: S=C(S)S [CS3^2−]
- Ki (read-out: AgaCA^c): 8.19 mM

SMILES: O=[Se](=O)(O)O [SeO4^2−]
- Ki (read-out: AgaCA^c): 9.41 mM

SMILES: O=[N+]([O-])O [NO3^−]
- Ki (read-out: AgaCA^c): 6.5 mM

SMILES: O=P(O)(O)OP(=O)(O)O [P2O7^4−]
- Ki: 8.52 mM

SMILES: NS(=O)(=O)O [H2NSO3H]
- Ki (read-out: KI [mM]^e / hCA I^a): 0.021 mM

SMILES: N#CO [CNO^−]
- Ki (read-out: AgaCA^c): 9.46 mM

SMILES: [O]=[Sn]([OH])[OH] [SnO3^2−]
- Ki (read-out: AgaCA^c): 1.8 mM

SMILES: O=[Te](=O)(O)O [TeO4^2−]
- Ki (read-out: AgaCA^c): 4.96 mM

SMILES: O=NO [NO2^−]
- Ki (read-out: AgaCA^c): 4.55 mM
